Results on 19 compounds are retold here after patent publication US12281122B1, “PI3K inhibitors” (Cogent Biosciences, Inc., priority 2023, dated 2025).

Structures are written as SMILES.

Experiment [1] deals with SKBR3 (PI3Kα-Wild Type) cell line. In words: HTRF phospho-AKT(S473) cell assay in SKBR3 cells. The conditions noted are these: Homo sapiens, SK-BR-3; SKBR3 (PI3Kα-Wild Type) cells, HTRF phospho-AKT(S473), 2 hours compound incubation, PDGF-BB stimulated. The experiment is classed as cell-based, human. The method, boiled down:
(§1)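 HTRF read-out of phospho-AKT(S473) in lysates gave IC50 values after 2 h compound exposure at 37° C. Dose series was 12 points at 1:3, topping at 5 μM for T47D and 10 μM for SKBR3. Only SKBR3 received 70 ng/ml PDGF-BB during the last 15 minutes.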
In general terms: Time-resolved FRET reads energy transfer from a long-lived donor to a nearby acceptor.

Experiment [2] deals with T47D (PI3Kα-H1047R) cell line. The experiment can be described thus: HTRF phospho-AKT(S473) cell assay in T47D cells. The experiment is classed as cell-based, human. The conditions noted are these: Homo sapiens; T47D (PI3Kα-H1047R) cells, HTRF phospho-AKT(S473), 2 hours compound incubation. The method in brief:
as §1

As a reminder, the IC50 is the point on the concentration scale where inhibition reaches its midpoint. Regarding `Cc1cc([C@@H](C)Nc2ccc(Cl)nc2C(=O)NS(C)(=O)=O)c2nc(-c3cnc(-c4ccn(C)n4)c(Cl)c3)n(C)c(=O)c2c1` [Compound 293, (R)-6-chloro-3-((1-(2-(5-chloro-6-(1-methyl-1H-pyrazol-3-yl)pyridin-3-yl)-3,6-dimethyl-4-oxo-3,4-dihydroquinazolin-8-yl)ethyl)amino)-N-(methylsulfonyl) picolinamide], the results for the IC50 in experiment [1] and in experiment [2] were 1000 to 5000 nM and 250 to 500 nM, respectively.

Consider `Cc1cc([C@@H](C)Nc2ccc(Cl)nc2C(=O)NS(=O)(=O)C2COC2)c2nc(N3CCOCC3)n(C)c(=O)c2c1` [Compound 294, (R)-6-chloro-3-((1-(3,6-dimethyl-2-morpholino-4-oxo-3,4-dihydroquinazolin-8-yl)ethyl)amino)-N-(oxetan-3-ylsulfonyl)picolinamide], for which the results for the IC50 in experiment [1] and in experiment [2] were 1000 to 5000 nM and less than 250 nM, respectively.

As for `Cc1cc([C@@H](C)Nc2ccc(Cl)nc2C(=O)NS(C)(=O)=O)c2nc(N3C[C@@H]4[C@H](C3)[C@H]4c3ccn(C)n3)n(C)c(=O)c2c1` [Compound 295, 6-chloro-3-(((R)-1-(3,6-dimethyl-2-((1R,5S,6R)-6-(1-methyl-1H-pyrazol-3-yl)-3-azabicyclo[3.1.0]hexan-3-yl)-4-oxo-3,4-dihydroquinazolin-8-yl)ethyl)amino)-N-(methylsulfonyl) picolinamide], the IC50 in experiment [1] is 1000 to 5000 nM; in experiment [2], less than 250 nM.

Regarding `Cc1cc([C@@H](C)Nc2ccc(Cl)nc2C(=O)NS(C)(=O)=O)c2nc(N3C[C@@H]4[C@H](C3)[C@H]4c3ccnn3C)n(C)c(=O)c2c1` [Compound 296, 6-chloro-3-(((R)-1-(3,6-dimethyl-2-((1R,5S,6R)-6-(1-methyl-1H-pyrazol-5-yl)-3-azabicyclo[3.1.0]hexan-3-yl)-4-oxo-3,4-dihydroquinazolin-8-yl)ethyl)amino)-N-(methylsulfonyl) picolinamide], the figures for the IC50 in experiment [1] and in experiment [2] were 1000 to 5000 nM and 250 to 500 nM, respectively.

In the case of `Cc1cc([C@@H](C)Nc2ccc(Cl)nc2C(=O)NS(C)(=O)=O)c2nc(N3[C@@H]4CC[C@H]3C[C@@H](c3cnn(C)c3)C4)n(C)c(=O)c2c1` [Compound 297, 6-chloro-3-(((R)-1-(3,6-dimethyl-2-((1R,3R,5S)-3-(1-methyl-1H-pyrazol-4-yl)-8-azabicyclo[3.2.1]octan-8-yl)-4-oxo-3,4-dihydroquinazolin-8-yl)ethyl)amino)-N-(methylsulfonyl) picolinamide], the IC50 in experiment [1] is not below 5000 nM; in experiment [2], 250 to 500 nM.

In the case of `Cc1cc([C@@H](C)Nc2ccc(Cl)nc2C(=O)NS(C)(=O)=O)c2nc(N3[C@@H]4CC[C@H]3C[C@H](c3cnn(C)c3)C4)n(C)c(=O)c2c1` [Compound 298, 6-chloro-3-(((R)-1-(3,6-dimethyl-2-((1R,3S,5S)-3-(1-methyl-1H-pyrazol-4-yl)-8-azabicyclo[3.2.1]octan-8-yl)-4-oxo-3,4-dihydroquinazolin-8-yl)ethyl)amino)-N-(methylsulfonyl) picolinamide], the IC50 is not below 5000 nM in experiment [1] and less than 250 nM in experiment [2].

For `Cc1cc([C@@H](C)Nc2ccc(Cl)nc2C(=O)NS(C)(=O)=O)c2nc(N3[C@@H]4CC[C@H]3C[C@@H](c3cnc(C)nc3)C4)n(C)c(=O)c2c1` [Compound 299, 6-chloro-3-(((R)-1-(3,6-dimethyl-2-((1R,3R,5S)-3-(2-methylpyrimidin-5-yl)-8-azabicyclo[3.2.1]octan-8-yl)-4-oxo-3,4-dihydroquinazolin-8-yl)ethyl)amino)-N-(methylsulfonyl) picolinamide], the results for the IC50 in experiment [1] and in experiment [2] were 1000 to 5000 nM and less than 250 nM, respectively.

As for `Cc1cc([C@@H](C)Nc2ccc(Cl)nc2C(=O)NS(C)(=O)=O)c2nc(N3[C@@H]4CC[C@H]3C[C@H](c3cnc(C)nc3)C4)n(C)c(=O)c2c1` [Compound 300, 6-chloro-3-(((R)-1-(3,6-dimethyl-2-((1R,3S,5S)-3-(2-methylpyrimidin-5-yl)-8-azabicyclo[3.2.1]octan-8-yl)-4-oxo-3,4-dihydroquinazolin-8-yl)ethyl)amino)-N-(methylsulfonyl) picolinamide], the values for the IC50 in experiment [1] and in experiment [2] were not below 5000 nM and less than 250 nM, respectively.

Take `Cc1cc([C@@H](C)Nc2ccc(Cl)nc2C(=O)NS(C)(=O)=O)c2nc(N3CCC(C)(c4ccn(C)n4)CC3)n(C)c(=O)c2c1` [Compound 301, (R)-6-chloro-3-((1-(3,6-dimethyl-2-(4-methyl-4-(1-methyl-1H-pyrazol-3-yl)piperidin-1-yl)-4-oxo-3,4-dihydroquinazolin-8-yl)ethyl)amino)-N-(methylsulfonyl) picolinamide]: the results for the IC50 in experiment [1] and in experiment [2] were not below 5000 nM and less than 250 nM, respectively.

With `Cc1cc([C@@H](C)Nc2ccc(Cl)nc2C(=O)NS(C)(=O)=O)c2nc(N3CCC(C)(c4ccnn4C)CC3)n(C)c(=O)c2c1` [Compound 302, (R)-6-chloro-3-((1-(3,6-dimethyl-2-(4-methyl-4-(1-methyl-1H-pyrazol-5-yl)piperidin-1-yl)-4-oxo-3,4-dihydroquinazolin-8-yl)ethyl)amino)-N-(methylsulfonyl) picolinamide], the IC50 was 1000 to 5000 nM in experiment [1] and less than 250 nM in experiment [2].

Turning to `Cc1cc([C@@H](C)Nc2ccc(Cl)nc2C(=O)NS(C)(=O)=O)c2nc(-c3ccc(-c4noc(C)n4)nc3)n(C)c(=O)c2c1` [Compound 303, (R)-6-chloro-3-((1-(3,6-dimethyl-2-(6-(5-methyl-1,2,4-oxadiazol-3-yl)pyridin-3-yl)-4-oxo-3,4-dihydroquinazolin-8-yl)ethyl)amino)-N-(methylsulfonyl) picolinamide], the IC50 in experiment [1] was in the range of 1000 to 5000 nM; in experiment [2] it was 250 to 500 nM.

Turning to `Cc1cc([C@@H](C)Nc2ccc(Cl)nc2C(=O)NS(C)(=O)=O)c2nc(N3CCC(n4nc(C#N)c5ccccc54)CC3)n(C)c(=O)c2c1` [Compound 304, (R)-6-chloro-3-((1-(2-(4-(3-cyano-1H-indazol-1-yl)piperidin-1-yl)-3,6-dimethyl-4-oxo-3,4-dihydroquinazolin-8-yl)ethyl)amino)-N-(methylsulfonyl) picolinamide], the IC50 is not below 5000 nM in experiment [1] and 250 to 500 nM in experiment [2].

For `Cc1cc([C@@H](C)Nc2ccc(Cl)nc2C(=O)NS(C)(=O)=O)c2nc(-c3ccc(N4CC5CCC(C4)C5O)nc3)n(C)c(=O)c2c1` (stereo partly drawn) [Compound 305, 6-chloro-3-(((1R)-1-(2-(6-(8-hydroxy-3-azabicyclo[3.2.1]octan-3-yl)pyridin-3-yl)-3,6-dimethyl-4-oxo-3,4-dihydroquinazolin-8-yl)ethyl)amino)-N-(methylsulfonyl) picolinamide], the results for the IC50 in experiment [1] and in experiment [2] were not below 5000 nM and less than 250 nM, respectively.

For `Cc1cc([C@@H](C)Nc2ccc(Cl)nc2C(=O)NS(C)(=O)=O)c2nc(N3CCC(c4nn(C)cc4N(C)C)CC3)n(C)c(=O)c2c1` [Compound 308, (R)-6-chloro-3-((1-(2-(4-(4-(dimethylamino)-1-methyl-1H-pyrazol-3-yl)piperidin-1-yl)-3,6-dimethyl-4-oxo-3,4-dihydroquinazolin-8-yl)ethyl)amino)-N-(methylsulfonyl) picolinamide], the IC50 in experiment [1] is not below 5000 nM; in experiment [2] it was less than 250 nM.

Regarding `Cc1cc([C@@H](C)Nc2ccc(Cl)nc2C(=O)NS(C)(=O)=O)c2nc(N3CCC(n4nccc4N(C)C)CC3)n(C)c(=O)c2c1` [Compound 309, (R)-6-chloro-3-((1-(2-(4-(5-(dimethylamino)-1H-pyrazol-1-yl)piperidin-1-yl)-3,6-dimethyl-4-oxo-3,4-dihydroquinazolin-8-yl)ethyl)amino)-N-(methylsulfonyl) picolinamide], the IC50 is not below 5000 nM in experiment [1] and 250 to 500 nM in experiment [2].

As to `Cc1cc([C@@H](C)Nc2ccc(Cl)nc2C(=O)NS(C)(=O)=O)c2nc(N3CCC(n4ccc(N(C)C)n4)CC3)n(C)c(=O)c2c1` [Compound 310, (R)-6-chloro-3-((1-(2-(4-(3-(dimethylamino)-1H-pyrazol-1-yl)piperidin-1-yl)-3,6-dimethyl-4-oxo-3,4-dihydroquinazolin-8-yl)ethyl)amino)-N-(methylsulfonyl) picolinamide], the IC50 in experiment [1] was 1000 to 5000 nM; in experiment [2] it was less than 250 nM.

Turning to `COc1cnn(C2CCN(c3nc4c([C@@H](C)Nc5ccc(Cl)nc5C(=O)NS(C)(=O)=O)cc(C)cc4c(=O)n3C)CC2)c1` [Compound 311, (R)-6-chloro-3-((1-(2-(4-(4-methoxy-1H-pyrazol-1-yl)piperidin-1-yl)-3,6-dimethyl-4-oxo-3,4-dihydroquinazolin-8-yl)ethyl)amino)-N-(methylsulfonyl) picolinamide], the IC50 in experiment [1] was 1000 to 5000 nM; in experiment [2], less than 250 nM.

Turning to `Cc1cc([C@@H](C)Nc2ccc(Cl)nc2C(=O)NS(C)(=O)=O)c2nc(N3CCC(c4ccn(-c5cccnc5)n4)CC3)n(C)c(=O)c2c1` [Compound 312, (R)-6-chloro-3-((1-(3,6-dimethyl-4-oxo-2-(4-(1-(pyridin-3-yl)-1H-pyrazol-3-yl)piperidin-1-yl)-3,4-dihydroquinazolin-8-yl)ethyl)amino)-N-(methylsulfonyl) picolinamide], the IC50 is 1000 to 5000 nM in experiment [1] and less than 250 nM in experiment [2].

With `Cc1cc([C@@H](C)Nc2ccc(Cl)nc2C(=O)NS(C)(=O)=O)c2nc(N3C[C@H]4C[C@@H](c5ccn(C)n5)[C@@H]3C4)n(C)c(=O)c2c1` [Compound 315, 6-chloro-3-(((R)-1-(3,6-dimethyl-2-((1S,4S,6R)-6-(1-methyl-1H-pyrazol-3-yl)-2-azabicyclo[2.2.1]heptan-2-yl)-4-oxo-3,4-dihydroquinazolin-8-yl)ethyl)amino)-N-(methylsulfonyl) picolinamide], the IC50 in experiment [1] was not below 5000 nM; in experiment [2], less than 250 nM.
